Test results from publication PMC7115580 (European Journal of Medicinal Chemistry, 2017).

The compounds below were run against S31N mutant M2 channel (Influenza A virus, UniProt P0DOF5, S31N).
Assay type: biochemical

Row | SMILES | Inhibition of S31N mutant M2 channel
1 | CC1(C)N=C(N)N=C(N)N1c1ccc(Cl)c(Cl)c1 [Compound 16] | neither of the three compounds significantly inhibited
2 | CC1(C)N=C(N)N=C(N)N1c1cccc(C(F)(F)F)c1 [Compound 14] | neither of the three compounds significantly inhibited
3 | CC1(C)N=C(N)N=C(N)N1c1ccc(Cl)cc1 [Compound 1, cycloguanil, reference compound] | neither of the three compounds significantly inhibited
